Reference: US20120059051A1, “ORAL COMPOSITION CONTAINING EGCG AND LYCOPENE” (DSM IP ASSET B.V., priority 2006, published 2012)

Experiments:
[1] = tested on: MMP-1; assay: Inhibition of UV-A induced expression of matrix metalloproteinase-1 (real time PCR) in primary human dermal fibroblasts; type: cell-based; settings: skin fibroblasts; for % inhibition: inhibition of UV-A induced MMP-1 expression, 30 J/cm^2 UVA1; for MMP-1 expression relative to UV-A only treated cells: 30 J/cm^2 UVA1, MMP-1 RNA 24 hrs after irradiation, UV-A only = 100%
Procedure: Primary human dermal fibroblasts were cultured in EMEM without glutamine (Earle's Minimum Essential Medium), supplemented with antibiotics/antimycotics, 2 mM L-glutamine and 7.5% fetal calf serum at 37° C.[…] and grown to 100% confluency. Forty-eight hours prior to irradiation the cells were preincubated with the desired substances in EMEM (with AB/AM, L-Glutamine and 2% FCS. After 24 hours the medium was replaced by fresh medium with substances (fresh prepared). For irradiation, the medium was removed and after 6 wash steps with phosphate-buffered saline (PBS) replaced by phosphate-buffered saline (PBS). The plate was then exposed to 30 J/cm^2 UVA1. The UVA1 output was approximately 150 mW/cm^2. After irradiation the phosphate-buffered saline in the cell microplate was exchanged against culture medium (+7.5% FCS) with the substances (fresh prepared) and the cells were incubated in a CO2-incubator for further 24 hrs (MMP-1 determination). The culture medium was removed, the cells were rinsed with phosphate-buffered saline and the whole plate was frozen in liquid nitrogen. Total RNA was isolated using RNeasy Total RNA Kits (Qiagen, Hilden; Germany). The RNA concentration was determined via photometric measurement at 260/280. Aliquots of total RNA (75 ng) were applied for cDNA-Synthesis using Superscript™ First-Strand synthesis system for RT-PCR. Two samples for each compound were analyzed. The PCR reactions were carried out on an Opticon 1 (MJ Research, Waltham, Mass., USA) using SYBR Green® PCR Master Mix (Applied Biosystems, Darmstadt, Germany). For comparison of relative expression in real time PCR control cells and treated cells the 2 ^(−delta delta C(T)) method was used.

[2] = tested on: UVA-induced MMPI; settings: literature statement; increase only prevented in combination with vitamin E; cited from earlier work
[3] = tested on: UVA-induced collagenases; settings: literature statement; cited from earlier work
[4] = tested on: skin collagenases; settings: literature statement; cited from earlier work

Compound: CC(C)=CCC/C(C)=C/C=C/C(C)=C/C=C/C(C)=C/C=C/C=C(C)/C=C/C=C(C)/C=C/C=C(\C)CCC=C(C)C [Lycopene, lycopene]
- % inhibition [1]: 65%
- MMP-1 expression relative to UV-A only treated cells [1]: 35%
- effect on UVA-induced MMPI [2]: further increase

Compound: CC1=C(/C=C/C(C)=C/C=C/C(C)=C/C=C/C=C(C)/C=C/C=C(C)/C=C/C2=C(C)CCCC2(C)C)C(C)(C)CCC1 [betacarotene]
- effect on UVA-induced collagenases [3]: repress

Compound: (−)-epigallocatechin gallate [EGCG]
- % inhibition [1]: 13%
- MMP-1 expression relative to UV-A only treated cells [1]: 87%
- effect on various skin collagenases [4]: suppress
